In US10766866B2, “Deterrents for arthropods and marine organisms” (priority 2017, dated 2020):

How the values were obtained:
[1] = biological target: T1, AgAOctR (Anopheles octopamine receptor isoform A), cloned α-like OctR (Anopheles gambiae, UniProt Q7PRZ8); test: OctR activation: change in intracellular calcium (CALCIUM 6QR dye, FlexStation 3) in stably transfected mammalian cells; format: cell-based; conditions: agonist
T1 construct: Gq calcium readout
T1 sequence (Q7PRZ8 1-592): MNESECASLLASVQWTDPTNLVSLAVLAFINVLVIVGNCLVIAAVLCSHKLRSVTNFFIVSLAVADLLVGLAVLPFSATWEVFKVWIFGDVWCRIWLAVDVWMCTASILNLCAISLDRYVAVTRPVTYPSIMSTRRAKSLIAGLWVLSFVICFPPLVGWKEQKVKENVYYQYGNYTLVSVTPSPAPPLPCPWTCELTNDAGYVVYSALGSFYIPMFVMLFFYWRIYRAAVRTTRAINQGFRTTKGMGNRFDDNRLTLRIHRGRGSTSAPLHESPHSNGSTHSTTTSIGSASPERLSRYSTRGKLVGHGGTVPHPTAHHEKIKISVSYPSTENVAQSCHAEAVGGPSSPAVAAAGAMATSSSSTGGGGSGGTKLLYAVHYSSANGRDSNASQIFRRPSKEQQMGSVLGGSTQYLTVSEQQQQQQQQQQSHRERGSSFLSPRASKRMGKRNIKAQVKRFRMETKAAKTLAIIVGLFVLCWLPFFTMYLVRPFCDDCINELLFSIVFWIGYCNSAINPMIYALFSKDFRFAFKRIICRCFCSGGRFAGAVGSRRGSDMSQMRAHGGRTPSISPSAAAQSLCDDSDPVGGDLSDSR
Excerpt: (§1) Functional expression of cloned arthropod OctRs and human α2-ARs: The cDNAs for α-like OctRs from different arthropod species (e.g., Anopheles gambiae, Aedes aegypti, Periplaneta americana, Drosophila melanogaster, Ixodes scapularis, Balanus improvises) and for α2-AR subtypes from humans were individually subcloned into mammalian expression vectors. These plasmids, which harbor a resistance gene for the selection drug G418 and the cDNA sequence for the receptor of interest, were individually transfected into mammalian cells using a calcium phosphate precipitation method. G418 selection was then employed to generated stable clonal cell lines. Utilizing rapid filtration radioligand binding techniques, the cell surface density of receptor expression of the individual clonal cell lines was determined at equilibrium and those with similar high levels of expression were selected for further experiments. Briefly, binding conditions were 50 mM Tris binding buffer pH 7.4 at 25° C. and an ice-cold wash buffer 10 mM Tris-HCl, pH 7.4). The radioligand was [3H]rauwolscine and non-specific binding was determined in the presence of 10 μM atipamezole. Following the addition of membranes prepared from the clonal cell lines, samples were mixed and allowed 2 hr. to reach equilibrium before rapid filtration and washing through 0.3% PEI-treated GF/C filters. The radioactivity remaining on the filters was quantified by scintillation counting. Receptor density (Bmax) was back calculated knowing the specific activity of the radioligand and applying the equation for a square hyperbola model: Bmax=(Y·(KD+X))/X, where Y is [specifically bound radioligand] and X=[radio ligand concentration]. The affinity (KD) for the radioligand for each receptor was determined in separate saturation isotherm binding experiments using the same binding conditions as describe above.
(§2) Measurement of OctR activation by measuring changes in intracellular calcium: Activation of arthropod α-like OctRs increases intracellular calcium via a Gq-coupling mechanism. This involves activation of phospholipase C leading to an increase in intracellular inositol triphosphate (IP3) which then activates IP3-gated calcium channels in the endoplasmic reticulum causing a transient rise in intracellular calcium. These changes in intracellular calcium upon OctR activation were measured by loading cells with intracellular calcium sensitive dye CALCIUM 6QR and reading the change in calcium-induced fluorescent signal over time on a FlexStation 3 microplate reader.

[2] = system: AeOctR (Aedes octopamine receptor), cloned α-like OctR; test: as above; format: cell-based, Aedes aegypti; conditions: agonist
Excerpt: as §1, §2

[3] = system: Ixodes scapularis tick OctR (IsTOctR); test: OctR activation, change in intracellular calcium; format: cell-based
Excerpt: as §1, §2

[4] = system: Anopheles gambiae mosquito isoform A OctR (AgAOctR); test: OctR activation, change in intracellular calcium; format: cell-based; conditions: for selectivity Ki(Hsα2-AR)/EC50(OctR): AgAOctR over Homo sapien α2-AR subtypes
Excerpt: as §1, §2

[5] = system: IsTOctR (Ixodes octopamine receptor), cloned α-like OctR; test: OctR activation: change in intracellular calcium (CALCIUM 6QR dye, FlexStation 3) in stably transfected mammalian cells; format: cell-based, Ixodes scapularis; conditions: agonist, read-out: IsTOctR (Ixodes octopamine receptor) EC50
Excerpt: as §1, §2

[6] = biological target: T2, human α2C adrenergic receptor (α2c-AR) (Homo sapiens, UniProt P18825); test: Measurement of intracellular cAMP (cAMP-Glo); format: cell-based, Homo sapien; conditions: in words; normalized to 1 μM forskolin; FIG. 8
T2 construct: expressed in transfected cells
T2 sequence (P18825 1-462): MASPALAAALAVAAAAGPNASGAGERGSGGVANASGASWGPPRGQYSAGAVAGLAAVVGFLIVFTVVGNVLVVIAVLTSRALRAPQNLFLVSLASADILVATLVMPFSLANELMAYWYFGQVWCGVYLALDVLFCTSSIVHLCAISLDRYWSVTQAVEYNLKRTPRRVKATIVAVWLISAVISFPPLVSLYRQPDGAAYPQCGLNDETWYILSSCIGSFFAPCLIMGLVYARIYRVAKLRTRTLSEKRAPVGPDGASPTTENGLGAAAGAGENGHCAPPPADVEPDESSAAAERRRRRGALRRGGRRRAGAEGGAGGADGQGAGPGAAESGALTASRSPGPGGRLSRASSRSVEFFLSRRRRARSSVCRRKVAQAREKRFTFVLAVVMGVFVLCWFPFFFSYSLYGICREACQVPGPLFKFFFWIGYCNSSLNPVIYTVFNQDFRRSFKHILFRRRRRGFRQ
Excerpt: as §1, with “Briefly, binding conditions were 50 mM Tris binding buffer pH 7.4 at 25° C. and an ice-cold wash buffer 10 mM Tris-HCl, pH 7.4).” left out, “Following the addition of membranes prepared from the clonal cell lines, samples were mixed and allowed 2 hr. to reach equilibrium before rapid filtration and washing through 0.3% PEI-treated GF/C filters.” left out, “The affinity (KD) for the radioligand for each receptor was determined in separate saturation isotherm binding experiments using the same binding conditions as describe above.” left out

[7] = biological target: T3, Hsα2C-AR (human α2C adrenergic receptor) (Homo sapiens, UniProt P18825); test: [3H]rauwolscine competition radioligand binding, membranes of clonal mammalian cell lines; conditions: 50 mM Tris pH 7.4, 25° C., 2 hr, Cheng-Prusoff
T3 construct: expressed in transfected cells
T3 sequence (P18825 1-462): T2 sequence (P18825 1-462)
Excerpt: as §1
(§3) Measurement of compound affinities by competition radioligand binding: Affinities (Ki) for compounds were determined by [3H]rauwolscine competition binding using the same binding conditions as described above. The Ki values were calculated from IC50 values using the Cheng-Prusoff equation.

[8] = biological target: T4, Hsα2A-AR (human α2A adrenergic receptor) (Homo sapiens, UniProt P08913); test: as above; conditions: 50 mM Tris pH 7.4, 25° C., 2 hr, Cheng-Prusoff
T4 construct: expressed in transfected cells; membranes
T4 sequence (P08913 whole entry): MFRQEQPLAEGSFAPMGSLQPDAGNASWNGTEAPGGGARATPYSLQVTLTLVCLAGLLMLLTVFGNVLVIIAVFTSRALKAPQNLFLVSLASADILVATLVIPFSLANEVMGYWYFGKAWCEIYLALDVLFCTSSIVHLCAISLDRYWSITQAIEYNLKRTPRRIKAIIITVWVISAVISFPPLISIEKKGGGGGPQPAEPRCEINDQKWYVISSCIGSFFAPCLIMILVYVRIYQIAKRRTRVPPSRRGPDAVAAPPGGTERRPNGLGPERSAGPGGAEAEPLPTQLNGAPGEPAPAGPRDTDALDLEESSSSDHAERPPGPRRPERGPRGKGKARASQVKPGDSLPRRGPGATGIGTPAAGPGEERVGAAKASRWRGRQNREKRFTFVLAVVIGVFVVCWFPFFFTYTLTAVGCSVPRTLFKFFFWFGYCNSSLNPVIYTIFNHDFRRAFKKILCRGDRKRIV
Excerpt: as §1, §3

[9] = biological target: T2, human α2C adrenergic receptor (α2c-AR); test: Intracellular cyclic AMP (cAMP-Glo) functional assay, stably transfected mammalian cells; format: cell-based
Excerpt: as §1, with “Briefly, binding conditions were 50 mM Tris binding buffer pH 7.4 at 25° C. and an ice-cold wash buffer 10 mM Tris-HCl, pH 7.4).” left out, “Following the addition of membranes prepared from the clonal cell lines, samples were mixed and allowed 2 hr. to reach equilibrium before rapid filtration and washing through 0.3% PEI-treated GF/C filters.” left out, “The affinity (KD) for the radioligand for each receptor was determined in separate saturation isotherm binding experiments using the same binding conditions as describe above.” left out

α-like OctRs = test: OctR activation, change in intracellular calcium (statements on OctRs in general); format: cell-based; conditions: relative to fluorinated AZ1411
Excerpt: as §1, with “Briefly, binding conditions were 50 mM Tris binding buffer pH 7.4 at 25° C. and an ice-cold wash buffer 10 mM Tris-HCl, pH 7.4).” left out, “Following the addition of membranes prepared from the clonal cell lines, samples were mixed and allowed 2 hr. to reach equilibrium before rapid filtration and washing through 0.3% PEI-treated GF/C filters.” left out, “The affinity (KD) for the radioligand for each receptor was determined in separate saturation isotherm binding experiments using the same binding conditions as describe above.” left out

α2-ARs = test: Functional profile at α2-ARs (preliminary studies); format: cell-based, Homo sapien
Excerpt: as §1, with “Briefly, binding conditions were 50 mM Tris binding buffer pH 7.4 at 25° C. and an ice-cold wash buffer 10 mM Tris-HCl, pH 7.4).” left out, “Following the addition of membranes prepared from the clonal cell lines, samples were mixed and allowed 2 hr. to reach equilibrium before rapid filtration and washing through 0.3% PEI-treated GF/C filters.” left out, “The affinity (KD) for the radioligand for each receptor was determined in separate saturation isotherm binding experiments using the same binding conditions as describe above.” left out

SMILES | EC50 [1] [nM] | EC50 [2] [nM] | selectivity Ki(Hsα2-AR)/EC50(OctR) ([3]; Ixodes tick OctR over Homo sapien α2-AR subtypes) | selectivity Ki(Hsα2-AR)/EC50(OctR) [4] | EC50 [5] [nM] | efficacy (change in intracellular cyclic AMP) [6] | potency (change in intracellular cyclic AMP) [6] | Ki [7] [nM] | Ki [8] [nM] | EC50 [9] [nM] | potency for OctRs compared with AZ1411 (α-like OctRs) | potency (EC50) ([3]; in words, FIG. 9) | efficacy (full/partial agonist) ([3]; in words, FIGS. 9, 11) | efficacy (full/partial agonist) ([4]; in words, FIGS. 9-12) | potency (EC50) ([4]; in words, FIGS. 9-12) | functional mode at α2-ARs (α2-ARs)
C=C(c1cnc[nH]1)c1cccc(F)c1C [AZ1411] | 0.11 ± 0.058 | 81 ± 46 | highly selective | highly selective | 2.9 ± 1.3 | partial agonist | low potency | 3530 ± 1590 | 494 ± 177 | 931 | – | – | – | – | – | –
C=C(c1cnc[nH]1)c1cccc(Cl)c1C [AZ1436] | 0.025 ± 0.0019 | – | – | highly selective | 1.8 ± 0.83 | – | – | – | – | – | 2-4 | potent | full agonist | full agonist | potent | likely an antagonist
